The values below come from patent publication US6172064A, “Formamides as therapeutic agents” (Glaxo Wellcome Inc., priority 1999, dated 2001).

Like-named read-outs stand apart in the source and are kept apart here.

One assay relates to SW 620 Human Colon. The assay can be described thus: Xenograft in vivo assay, SW 620. Particulars: female NU/NU mice, p.o. once a day, 14 days, 30 mg/kg and 90 mg/kg. On the procedure:
(§1) Female NU/NU mice with a weight of 21±2 g are weighed and used. Control and test animals are injected subcutaneously in the axillary region with a suspension of 2×10^6 viable tumor cells in 200 uL in PBS±matrigel on day 0. Tumors are allowed to grow for 10 to 14 days prior to drug administration. Doses of test drug are given on a mg/kg basis according to the mean body weight for each cage. For each drug, two doses are used, 30 mg/kg and 90 mg/kg, and are administered by p.o. route once a day over a 14 day time span. Tumor weight is calculated from two perpendicular caliper measurements of the tumor using the formula, tumor weight=length×width2.div.2 in millimeters. For each animal, tumor weight is monitored over the course of the experiment, and expressed as the percent of the tumor's weight. For each group, the mean increase in tumor weight over the course of the experiment is calculated (tumor weightday […]-tumor weightday 14=≈tumor weight) and the results expressed as percent inhibition of tumor growth with respect to the control group [1-(≈tumor weight treated group/(≈tumor weight control group)]×100. Results are presented in Table 4. The criterion for antitumor activity is 25% inhibition of tumor growth after 2 weeks of dosing (day 14).

The subject of a further assay is B16B6 Murine Melanoma. The assay can be described thus: Xenograft in vivo assay, B16B6. Particulars: female NU/NU mice, p.o. once a day, 14 days, 30 mg/kg and 90 mg/kg. Here is the method: as §1
The target in assay [1] is 50 kD truncated gelatinase B (MMP-9). The assay can be described thus: Matrix Metalloprotease Inhibition, Gelatinase B. To be noted: 100 pM enzyme, 10 μM fluorogenic substrate, pH=7.6; approximate IC50 equivalent to Ki ([S]<<Km). Format: biochemical. Here is the method: (§2) The potency of compounds of the invention as inhibitors of 19 kD truncated collagenase-1 (MMP-1), 20 kD truncated collagenase-3 (MMP-13), stromelysin-1 (MMP-3), and 50 kD truncated gelatinase B (MMP-9) is determined according to the general procedure of Bickett et. al. (Anal. Biochem. 1993, 212, 58-64) using the fluorogenic substrate, DNP-Pro-Cha-Gly-Cys(Me)-His-Ala-Lys(NMA)--NH2 (DNP=2,4-dinitrophenyl,NMA=N-methylanthranilic acid). Assays are conducted in a total volume of 0.180 mL assay buffer (200 mM NaCl, 50 mM Tris, 5 mM CaCl2, 10 μM ZnSO4, 0.005% Brij 35, pH=7.6) in each well of a black 96 well microtiter plate. 19 kD collagenase-1, 20 kD collagenase-3, stromelysin-1,and 50 kD gelatinase B concentrations are adjusted to 500 pM, 30 pM, 5 nM, and 100 pM, respectively. A dose response is generated using an eleven-point, 3-fold serial dilution with initial starting test compound concentrations of 100, 10, or 1 μM. Inhibitor and enzyme reactions are incubated for 30 minutes at ambient temperature and then initiated with 10 μM fluorogenic substrate (above). The product formation is measured at Excitation343 /Emission450 nm after 45-180 minutes using a Fluostar SLT fluorescence analyzer. Percent inhibition is calculated at each inhibitor concentration and the data were plotted using standard curve fitting programs. Approximate IC50 values were determined from these curves. Assays were run at low substrate concentration ([S]<<Km) such that the calculated IC50 values are equivalent to Ki within experimental error.

A further assay addresses stromelysin-1 (MMP-3) (Homo sapiens, UniProt P08254). The assay can be described thus: Matrix Metalloprotease Inhibition, Stromelysin-1. To be noted: 5 nM enzyme, 10 μM fluorogenic substrate, pH=7.6; approximate IC50 equivalent to Ki ([S]<<Km). The format is biochemical. Here is the method:
as §2

Assay [2] concerns the target 20 kD truncated collagenase-3 (MMP-13). The assay can be described thus: Matrix Metalloprotease Inhibition, Collagenase-3. The format is biochemical. To be noted: 30 pM enzyme, 10 μM fluorogenic substrate, pH=7.6; approximate IC50 equivalent to Ki ([S]<<Km). On the procedure:
as §2

Assay [3] deals with Mat Ly Lu Murine Prostate. As to the kind of experiment: Xenograft in vivo assay, Mat Ly Lu. Particulars: female NU/NU mice, p.o. once a day, 14 days, 30 mg/kg and 90 mg/kg. Here is the method: as §1
Assay [4] deals with TNFα release from LPS/PMA-stimulated MonoMac 6 cells. As to the kind of experiment: Cell-Based TNFα Release Inhibition. To be noted: Homo sapiens, MONO-MAC-6, LPS/PMA stimulation, 2 hours, 37° C. On the procedure: The potency of compounds of the invention as inhibitors of release of soluble tumor necrosis factor α from stimulated monocytes in vitro is determined as follows: LPS/PMA solution for assay consisting of a) 4 μL of 5 mg/mL LPS stock and b) 6 μL of 10 mg/mL PMA stock are added to 500 μL of medium (RPMI 1640 (Gibco)+10% FBS+penicillin/streptomycin+1-glutamine). This solution is then diluted 1:1000 (40 ng/mL and 120 ng/mL) for use later in the assay. Compounds (10 mM) are serially diluted 1:3 in DMSO. Compound dilutions (20 μL) are added to a sterile round bottom 96 well plate (20 μL:200 μL total volume=1:10 for final concentrations of […] for test compounds). MonoMac 6 cell suspension (130 μL, 1.5×10^6 cells/mL) is then added to each well resulting in 2×10^5 cells/well. LPS/PMA (50 μL) solution is then added to each well to begin stimulation (final concentrations of […] and 30 ng/mL respectively). The plate is incubated at 37° C. for 2 hours then spun at 1,500 rpm for 3 minutes to pellet cells. The supernatant (120 μL/well) is removed to a new round bottom 96 well plate and diluted 1:10 in PBS. Then, 20 μL of the supernatant is transferred to a Cistron TNFα ELISA plate and processed according to the manufacturer's instructions to quantitate levels of TNFα. […]

For assay [5], the system named is Lewis Lung M27 Murine Lung. The assay can be described thus: Xenograft in vivo assay, Lewis Lung M27. To be noted: female NU/NU mice, p.o. once a day, 14 days, 30 mg/kg and 90 mg/kg. Here is the method:
as §1

In the next assay the test system is Colo 205 Human Colon. The assay can be described thus: Xenograft in vivo assay, Colo 205. Particulars: female NU/NU mice, p.o. once a day, 14 days, 30 mg/kg and 90 mg/kg. Here is the method: as §1
For the next assay, the system named is A549 Human Lung. The assay can be described thus: Xenograft in vivo assay, A549. Particulars: female NU/NU mice, p.o. once a day, 14 days, 30 mg/kg and 90 mg/kg. On the procedure: as §1
The target of assay [6] is T1, TNFα converting enzyme (membrane preparation from MonoMac 6 cells) (Homo sapiens, UniProt P78536).
T1 construct: Membrane preparation from MonoMac 6 cells; endogenous in cells; host or cells: MonoMac 6 cells (membrane preparation, subfractionated extract)
T1 sequence (P78536 215-824): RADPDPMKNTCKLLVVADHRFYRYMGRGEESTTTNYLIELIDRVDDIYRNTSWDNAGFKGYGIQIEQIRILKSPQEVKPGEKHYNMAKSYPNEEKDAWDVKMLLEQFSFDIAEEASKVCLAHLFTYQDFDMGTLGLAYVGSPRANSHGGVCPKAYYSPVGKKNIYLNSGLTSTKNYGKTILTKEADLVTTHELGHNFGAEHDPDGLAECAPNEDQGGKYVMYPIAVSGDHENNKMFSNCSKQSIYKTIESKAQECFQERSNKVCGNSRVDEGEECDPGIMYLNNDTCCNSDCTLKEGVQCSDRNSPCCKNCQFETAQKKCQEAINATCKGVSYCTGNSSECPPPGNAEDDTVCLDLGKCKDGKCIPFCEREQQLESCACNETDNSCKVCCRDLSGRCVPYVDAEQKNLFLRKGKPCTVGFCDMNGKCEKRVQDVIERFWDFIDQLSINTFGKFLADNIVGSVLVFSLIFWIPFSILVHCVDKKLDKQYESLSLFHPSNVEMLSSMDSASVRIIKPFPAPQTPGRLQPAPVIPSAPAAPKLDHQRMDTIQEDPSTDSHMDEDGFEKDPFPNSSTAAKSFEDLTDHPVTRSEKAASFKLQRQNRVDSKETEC
As to the kind of experiment: TNFα Converting Enzyme Inhibition. Format: biochemical. On the procedure: The potency of compounds of the invention as inhibitors of cell-free tumor necrosis factor α converting enzyme is determined as follows: Membrane preparation from MonoMac 6 cells (subfractionated extract from equivalent of 6×10^6 cells per 60 μl assay) is incubated for 1 hr with 200 nM radiolabeled substrate (Biotin-SPLAQAVRSSSRT-(^3 H)P-S--NH2, 4.1 Ci/mmol, ref #0935 from Zeneca) in 10 mM hepes buffer, 250 mM sucrose, pH=7.5. The reaction is quenched by addition of streptavidin SPA beads (Amersham RPNQ0006), with excess binding capacity relative to substrate, suspended in 250 mM EDTA, pH=8.0. Binding is complete within 15 minutes and plates are counted in a Wallac 1450 Microbeta liquid scintillation counter. Percent inhibition is calculated at each inhibitor concentration and the data were plotted using standard curve fitting programs. Approximate IC50 values were determined from these curves. Assays were run at low substrate concentration ([S]<<Km) such that the calculated IC50 values are equivalent to Ki within experimental error.

The target in assay [7] is T2, 19 kD truncated collagenase-1 (MMP-1) (Homo sapiens, UniProt P03956).
T2 construct: 19 kD truncated collagenase-1 (MMP-1)
T2 sequence (P03956 101-269 limits assumed): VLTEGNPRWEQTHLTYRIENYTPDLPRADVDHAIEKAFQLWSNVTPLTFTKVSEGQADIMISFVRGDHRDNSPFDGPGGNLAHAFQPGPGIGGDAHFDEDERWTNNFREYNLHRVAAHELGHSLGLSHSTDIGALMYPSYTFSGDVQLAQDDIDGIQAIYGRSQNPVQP
The assay can be described thus: Matrix Metalloprotease Inhibition, Collagenase-1. The format is biochemical. Particulars: 500 pM enzyme, 10 μM fluorogenic substrate, pH=7.6; approximate IC50 equivalent to Ki ([S]<<Km). On the procedure: as §2

[8] abbreviates: MonoMac 6 membrane preparation, 200 nM radiolabeled substrate, pH=7.5, 1 hr, approximate IC50 equivalent to Ki ([S]<<Km), read-out: TNFα Converting Enzyme Ki.

Chain of stromelysin-1 (MMP-3) (P08254 100-477): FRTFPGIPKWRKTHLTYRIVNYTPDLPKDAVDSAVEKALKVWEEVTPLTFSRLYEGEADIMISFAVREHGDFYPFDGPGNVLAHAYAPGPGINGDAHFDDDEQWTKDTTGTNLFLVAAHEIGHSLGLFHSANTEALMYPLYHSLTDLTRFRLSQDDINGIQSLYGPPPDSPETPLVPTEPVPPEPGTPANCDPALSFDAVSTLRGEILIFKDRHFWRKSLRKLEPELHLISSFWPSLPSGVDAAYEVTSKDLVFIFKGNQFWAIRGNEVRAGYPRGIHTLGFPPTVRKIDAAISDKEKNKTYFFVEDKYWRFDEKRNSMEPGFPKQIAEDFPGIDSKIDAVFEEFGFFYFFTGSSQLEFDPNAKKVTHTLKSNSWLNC

As a reminder, the Ki is a measure of affinity in units of concentration, obtained from inhibition or displacement. Broadly, the IC50 is the point on the concentration scale where inhibition reaches its midpoint. A higher IC50 goes with weaker potency. Take `CNC(=O)[C@@H](NC(=O)[C@H](CCCc1ccccc1)[C@H](C)N(O)C=O)C(C)(C)C` [Example 1]: the “percent inhibition of tumor growth” value with SW 620 Human Colon is “++ (51-75% Inhibition)”; in the assay with B16B6 Murine Melanoma, “+ (26-50% Inhibition)”; in [3], “++ (51-75% Inhibition)”; in [5], “+ (26-50% Inhibition)”; with Colo 205 Human Colon, “++ (51-75% Inhibition)”; with A549 Human Lung, “++++ (>100% Inhibition (Tumor Regression))”. Also, the Ki was in the range of 0.5 to 5 nM in [1]; 50 to 500 nM on stromelysin-1 (MMP-3); 0.5 to 5 nM in assay [2]; 50 to 500 nM in [6]; 50 to 500 nM in assay [7]. Further, in assay [4], the half-maximal inhibitory concentration (IC50) was more than 500 nM.

As for `CNC(=O)[C@@H](NC(=O)[C@H](CCCCCc1ccccc1)[C@H](C)N(O)C=O)C(C)(C)C` [Example 61, (2R,3S)-3-(Formylhydroxyamino)-2-(5-phenyl-1-pentyl)butanoic Acid [(1S)-2,2-Dimethyl-(1-methylcarbamoyl)-1-propyl]amide], the inhibition constant Ki in [1] is 0.5 to 5 nM; on stromelysin-1 (MMP-3) it was 5 to 50 nM; in [2], 0.5 to 5 nM; in assay [6] (setting [8]) it was more than 500 nM; in [7] it was 50 to 500 nM.

In the case of `CC(C)[C@@H]([C@@H](CCCc1ccc(Cl)cc1)C(=O)N[C@H](C(=O)NCc1cccnc1)C(C)(C)C)N(O)C=O` [Example 9], the inhibition constant (Ki) is 0.5 to 5 nM in assay [1]; 5 to 50 nM on stromelysin-1 (MMP-3); 0.001 to 0.5 nM in assay [2]; 50 to 500 nM in [6] (setting [8]); 50 to 500 nM in assay [7].

As for `CNC(=O)[C@@H](NC(=O)[C@H](CCCc1ccc(Cl)cc1)[C@H](C)N(O)C=O)C(C)(C)C` [Example 2], the Ki in assay [1] was 0.001 to 0.5 nM; on stromelysin-1 (MMP-3), 5 to 50 nM; in assay [2] it was 0.001 to 0.5 nM; in assay [6] (setting [8]), more than 500 nM; in assay [7], 5 to 50 nM.

Take `C[C@@H]([C@@H](CCCc1ccc(Cl)cc1)C(=O)N[C@H](C(=O)NCCCN1CCOCC1)C(C)(C)C)N(O)C=O` [Example 24, (2R,3S)-3-(Formylhydroxyamino)-2-(3-(4-chlorophenyl)-1-propyl)-butanoic Acid[(1S)-2,2-Dimethyl-(1-(3-(4-morpholino)-1-propyl)carbamoyl)-1-propyl]amide]: the inhibitory constant (Ki) in assay [1] lay within 0.5 to 5 nM; on stromelysin-1 (MMP-3), 5 to 50 nM; in assay [2], 0.001 to 0.5 nM; in [6] (setting [8]) it was 50 to 500 nM; in assay [7] it was 50 to 500 nM.

As to `CNC(=O)[C@@H](NC(=O)[C@H](CCCc1ccc(C)cc1)[C@H](C)N(O)C=O)C(C)(C)C` [Example 52, (2R,3S)-3-(Formylhydroxyamino)-2-(3-(4-methylphenyl)-1-propyl)butanoic Acid [(1S)-2,2-Dimethyl-(1-methylcarbamoyl)-1-propyl]amide], the inhibition constant (Ki) is 0.5 to 5 nM in assay [1]; 5 to 50 nM at stromelysin-1 (MMP-3); 0.5 to 5 nM in [2]; 50 to 500 nM in assay [6] (setting [8]); 50 to 500 nM in assay [7].

For the compound `CNC(=O)[C@@H](NC(=O)[C@H](CCCc1cccs1)[C@H](C)N(O)C=O)C(C)(C)C` [Example 3], the inhibition constant Ki in [1] was 0.5 to 5 nM; at stromelysin-1 (MMP-3), 50 to 500 nM; in assay [2], 0.001 to 0.5 nM; in assay [6] (setting [8]), 50 to 500 nM; in assay [7], 5 to 50 nM.

For the compound `C[C@@H]([C@@H](CCCc1ccc(Cl)cc1)C(=O)N[C@H](C(=O)NCc1ccccn1)C(C)(C)C)N(O)C=O` [Example 20, (2R,3S)-3-(Formylhydroxyamino)-2-(3-(4-chlorophenyl)-1-propyl)-butanoic Acid [(1S)-2,2-Dimethyl-(1-(2-pyridylmethyl)carbamoyl)-1-propyl]amide], the Ki in assay [1] was 0.5 to 5 nM; on stromelysin-1 (MMP-3), 50 to 500 nM; in assay [2], 0.001 to 0.5 nM; in assay [6] (setting [8]) it was more than 500 nM; in [7], 50 to 500 nM.
